# According to patent publication US8802635B2, “Antioxidant, anti-inflammatory, anti-radiation, metal chelating compounds and uses thereof” (Oneday—Biotech And Pharma Ltd., priority 2011, dated 2014):
# Starred links: 1 amine or outer side, 2 acyl side, 3 side chain; linkers in the order of their positions; H or OH if unused. Non-standard residues stand in square brackets, D forms with d. γGlu = O=C(O)[C@H](CCC(=O)[*:2])N[*:1]
# Experiments:
# [1] = test system: alanine aminotransferase (ALT) in plasma / liver necrosis; experiment: Concanavalin A-induced liver inflammation in C57BL/6 mice; format: in vivo; details: ConA dose 180 μg/mouse
# Protocol: Six groups of C57BL/6 female mice (7-8 weeks old) containing 6 mice in each group were injected i.p. with different peptide on days −3, −2, −1 at a dose of 50 mg/kg or with PBS alone. On day zero all the mice were injected i.v. with 250 μg/mouse of Con A and 45 min. later they were injected i.p. with 150 mg/kg of each peptide or PBS.
# Eight hours after Con A injection mice were bled into heparinized tubes (approx. 150 ul of blood from each mouse) and the levels of alanine aminotransferase (ALT) was measured in the plasma.
# One day later the mice were sacrificed and their livers were placed in 4% formalin and sent for pathological examination.
# Next, peptide DY-66 was examined and compared to N-acetylcysteine (NAC), CB3 and CB4. The compounds were tested according to the procedure described above. ConA dose was 180 μg/mouse.
# FIG. 8 presents the change in ALT levels (%) for each of the tested compounds compared to PBS treatment (i.e., the ratio between ALT levels in samples obtained from mice treated with a tested compound and ALT levels in samples obtained from PBS-treated mice)
# [2] = test system: HaCaT cells; experiment: UVB-induced cytotoxicity in HaCaT cells (MTT); format: cell-based; details: UVB 0.05 J/cm^2; MTT after 72 hours
# Protocol: HaCaT cells were seeded in 96-wells plate (10×10^4/ml) and incubated in 37° C., 6% CO2 for 24 hours. Cells were incubated with the peptides at the indicated concentrations for 2.5 hours and washed (PBS). Then 100 μl PBS were added to each well followed by UVB irradiation (0.05 J/cm^2). Cells were washed with PBS and incubated with culture medium (DMEM, 100 μl) containing the peptides. MTT assay was carried out after 72 hours.
# [3] = test system: HaCaT cells; experiment: Hydrogen peroxide-induced HaCaT keratinocyte cytotoxicity (MTT); format: cell-based; details: for protection of cell viability after hydrogen peroxide exposure (in words): 90 μM hydrogen peroxide 30 min, MTT after 72 hours
# Protocol: All five peptides were examined in this Example, and their activity was compared to the known CB3 peptide. HaCaT cells were seeded in 96-well plate at a concentration of 10×10^4 cells/ml for 24 hours. Then cells were incubated with the peptides at the indicated concentrations for 2.5 hours followed by washing with PBS and incubation with 90 μM hydrogen peroxide (without peptide) for 30 minutes. Cells were washed with PBS and incubated with culture medium containing peptide for 72 hours. Cell viability was tested by MTT. The effect of the peptides on cell viability was performed similarly without hydrogen peroxide exposure.
# [4] = test system: JNK (c-Jun N-terminal kinases); experiment: Inhibition of oxidative stress (auranofin)-induced JNK phosphorylation in SH-SY5Y cells; format: cell-based, Human; details: auranofin 5 μM
# Protocol: (§1) Human neuroblastoma SH-SY5Y cells were maintained in Dulbecco's modified Eagle's medium (DMEM, Invitrogen) supplemented with 10% fetal bovine serum (Invitrogen), 100 μg/ml streptomycin and 100 U/ml penicillin G (Gibco). Cells were plated at a density of 6.25×10^4/cm^2 and incubated for 24 hours, after which they were exposed to different treatments.
# (§2) SH-SY5Y cells were plated on 96-well plates and treated with Auranofin (AuF) (5 μM) for 30 min. Then the cells were washed with PBS and treated with either one of the peptides at the indicated concentrations. Twenty-four hours later, the cells were fixed with glutaraldehyde in final concentration of 0.5% for 10 min. Cells were washed 3 times with DDW dried over night, and washed once with borate buffer (0.1M, pH 8.5). The fixed cells were stained with 200 μl of 1% methylene blue dissolved in borate buffer for 1 hour. After extensive washing and drying, the color was extracted with 200 μl of 0.1 M HCl for 1 h at 37° C. and absorbance was read in spectrophotometer at 630 nm.
# (§3) Twenty to thirty micrograms of protein samples were loaded on 10-12% SDS-PAGE gels. The proteins were then transferred electrophoretically to nitrocellulose (Whatman, Germany). The blots were blocked by incubation for 1 h at room temperature (RT) in TBS-T (25 mM Tris-HCl pH 7.4, 0.9% NaCl and 0.02% Tween-20) with 4% Difco skim milk (BD, USA), and incubated over-night at 4° C. with the primary antibody: pERK1/2 (Thr 202/Tyr204), mouse mAb, (1:6,000); p-SAPK/JNK (Thr183/Tyr185), rabbit mAb; SAPK/JNK, mouse mAb; p-p38MAP Kinase (Thr180/Tyr182), rabbit mAb; cleaved caspase 3, rabbit mAb. All antibodies were from Cell Signaling Tech. USA, used at 1:1000. Purified b Catenin, mouse mAb, (1:10,000; BD Transduction Laboratories, USA) diluted in 5% BSA, 0.04% Azide in TBS-T. Proteins were detected with Anti-Mouse or Anti-Rabbit IgG-HRP linked antibody (1:10,000; Cell Signaling, Tech. USA).
# [5] = Metal chelation: copper binding by mass spectra (ESI); details: 0.83 mM peptide, 1.66 mM CuSO4, 1 hour room temperature
# Protocol: (§4) All five peptides were examined for their ability to bind copper and ferric ions. 0.83 mM of each peptide were mixed with 1.66 mM of either FeCL3 or CuSO4. The mixtures were incubated for 1 hour at room temperature and further kept at ° 4 C until analysis. Samples were analyzed by mass spectra (ESI).
# [6] = test system: malondialdehyde (MDA) in lung tissue; experiment: MDA (lipid peroxidation) in lung, zymosan-induced inflammation; format: in vivo, mice; details: i.p. 3x50 mg/kg before, 120 mg/kg 30 min before and 5 h after zymosan; 24 h; p<0.05
# Protocol: Male BALB/c mice were randomly allocated into the following experimental groups (8 mice for each group):
# The peptides were administered by an intraperitoneal (i.p.) route of administration as follows: • The first dose (50 mg per kg) was given 3 days before the zymosan injection. • The second dose (50 mg per kg) was given 2 days before the zymosan injection. • The third dose (50 mg per kg) was given 1 day before the zymosan injection. • The fourth dose (120 mg per kg) was given 30 minutes before the zymosan injection. • The fifth dose (120 mg per kg) was given 5 hours after the zymosan injection.
# The peptides were formulated in D5W (5% dextrose in water, “D5W”). The vehicle control was D5W. At 24 hours after administration of zymosan, animals were euthanized and assessed for inflammation by an MDA (malondialdehyde) analysis of lung tissue. All the materials and drugs (apart from the peptides) were obtained from Sigma, Inc.
# Malondialdehyde (MDA) formation was used to quantify lipid peroxidation, measured as thiobarbituric acid-reactive material. […] After cooling to room temperature, samples were cleared by centrifugation at 10,000 g for 10 min and absorbance was measured at 532 nm using 1,1,3,3-tetramethoxypropane as an external standard. The level of lipid peroxides was expressed as nM MDA/mg protein.
# [7] = test system: cellularity of the peritoneal exudates; experiment: Ovalbumin-induced hypersensitivity (allergic peritonitis): peritoneal cellularity; format: in vivo, mice; details: 125 mg/kg i.p. on days 13, 14, 15
# Protocol: (§5) Male BALB/c mice (6-8 weeks old) were housed under specific pathogen-free conditions and maintained on a 12-hour light/dark cycle, with food and water ad libitum. All materials and drugs were obtained from Sigma, Inc.
# (§6) Mice in Groups A, B, C, and E (n=10 per group) were sensitized with intraperitoneal (i.p.) 200 μl of sterile PBS containing 100 μg ovalbumin (OVA) and 1.6 mg alum on days 0 and 7, and challenged with intraperitoneal (i.p.) 200 μl of sterile PBS containing 10 μg ovalbumin (OVA) on day 14 in order to induce an experimental model of allergic peritonitis. Mice in Group F (n=10) were injected with intraperitoneal (i.p) 200 μl sterile PBS (“sham” group, no OVA and no Alum).
# (§7) Mice in Groups A, B, and C, were treated with 150 μl of sterile PBS containing peptides DY-66, DY-65 and DY-70, respectively, at a dose of 125 mg/kg on days 13, 14, and 15 via an i.p. route of administration.
# (§8) Mice in Groups E and F were treated with 150 μl of sterile PBS on days 13, 14, and 15 via an i.p. route of administration. On day 14 the test articles (or PBS vehicle) were injected 30 minutes before injecting the OVA.
# [8] = Metal chelation: ferric ion binding by mass spectra (ESI); details: 0.83 mM peptide, 1.66 mM FeCL3, 1 hour room temperature
# Protocol: as §4
# [9] = test system: anti-OVA serum IgE; experiment: Ovalbumin-induced hypersensitivity: serum anti-OVA IgE; format: in vivo, mice; details: 125 mg/kg i.p. on days 13, 14, 15; blood day 16
# Protocol: as §5, §6, §7, §8
# Blood taken on day 16 was tested for 1) serum anti-OVA IgE, 2) white blood cell count and differential (including absolute and percentage of eosinophils count). Serum was frozen at −80° C. for future optional blood tests.
# [10] = test system: p38 MAP Kinase; experiment: Inhibition of oxidative stress (auranofin)-induced p38 phosphorylation in SH-SY5Y cells; format: cell-based, Human; details: auranofin 5 μM
# Protocol: as §1, §2, §3
# [11] = test system: IkappaBalpha; experiment: Cytoplasmic stability of I-kappaBalpha in lung, zymosan-induced inflammation; format: in vivo, mice; details: lung tissue, 24 hours after zymosan
# Protocol: Male BALB/c mice were randomly allocated into the following experimental groups:
# The peptides were administered by an intraperitoneal (i.p.) route of administration as described in Example 3.
# The peptides were formulated in D5W as described in Example 3. The vehicle control was D5W.
# At 24 hours after administration of zymosan, animals were euthanized and assessed for inflammation by an NF-κB analysis of lung tissue.
# Tissues were homogenized and nuclear extracts prepared via centrifugation. ELISA for IkappaBalpha was performed, using a series of standards in order to define absolute concentrations.
# [12] = test system: carrageenan-induced hind paw swelling; experiment: Carrageenan-induced hind paw swelling; format: in vivo, mice; details: 150 mg/kg i.p. 30 min prior to carrageenan
# Protocol: The above new five peptides were examined for anti-inflammatory activity, and their activity was compared to that of peptide CB3. Male ICR mice received an i.p. administration of each of the tested peptide (150 mg/kg) 30 min prior to the injection of carrageenan into the sub-plantar area of both of the animal's hind paws. Carrageenan was dissolved in water at concentration of 3 mg/ml and injected at a volume of 50 μl. Hind paw thickness was measured by Mitutoyo® micrometer before carrageenan injection and afterward at intervals of 1 hour between each measurement. Swelling was calculated as the difference between the thickness of the hind paw measured at each time interval and its size at time 0 (before carrageenan injection). n=6 foot pads (3 animals) for each group.
IC50 [4] [µM],IC50 [10] [µM],Molecule,ALT level compared to PBS-treated mice (in words) [1],protection of cell viability after hydrogen peroxide exposure (in words) [3],hind paw swelling compared to control (in words) [12],further results
,,"CC(=O)N[C@@H](CS)C(=O)O [NAC, N-acetylcysteine, reference compound]",did not induce a significant change in ALT level,,,
,,"N-acetyl-Cys-Gly-Pro-Cys-NH2 (Ac-CGPC-NH2; cysteine pairing not given here) [CB4, reference compound]",highly increased ALT level,,,
22.1,22.2,N-acetyl-Cys-Met-Lys-Cys-NH2 (Ac-CMKC-NH2; cysteine pairing not given here) [DY-70],,fully protected the cells from hydrogen peroxide,,protection against UVB-induced cytotoxicity (in words) [2]: protective effect at low concentrations; copper binding (in words) [5]: low degree; effect on zymosan-induced elevation of MDA in lung tissue (in words) [6]: inhibited the elevation in MDA concentration; effect on OVA-induced elevation of peritoneal exudate cellularity (in words) [7]: significantly reduced the elevation; rank order of reduction of peritoneal exudate cellularity [7]: DY-65>DY-70>DY-66; FeCl binding (in words) [8]: low degree; effect on OVA-induced elevation of anti-OVA serum IgE titer (in words) [9]: significantly reduced the elevation; rank order of reduction of anti-OVA serum IgE titer [9]: DY-65>DY-70>DY-66; rank order of efficacy on cytoplasmic IkappaBalpha [11]: DY-70>DY-65>DY-66
,,"N-acetyl-Cys-Pro-Cys-NH2 (Ac-Cys-Pro-Cys-NH2; cysteine pairing not given here) [CB3, reference compound]",highly increased ALT level,slightly elevated cell viability,did not show a significant reduction,
82.3,46.9,N-acetyl-Cys-γGlu-Cys-Cys-NH2 (Ac-C[γGlu]CC-NH2; cysteine pairing not given here) [DY-71],,slightly elevated cell viability,,
67.3,36.5,N-acetyl-Cys-γGlu-Cys-NH2 (Ac-Cys-[γGlu]-Cys-NH2; cysteine pairing not given here) [DY-67],,,Reduced swelling compared to control,increase in cell viability ([3]; concentrations of 1-10 μM): about 45%
